The experiment addresses T1, human TRPM8 (UniProt Q8R4D5).
T1 construct: Receptor Activity TRPM8; Receptor Activity TRPM8; other: test compound at 0.001%; relative to WS5 control (30 microMolar); HEK 293 cells; other: test compound at 0.004%; other: test compound at 5.2E−5%; relative to WS5 control
The experiment is described as follows: TRPM8 Protocol-FLIPR Assay (intracellular Ca2+). It is filed as cell-based. To be noted: for TRPM8 Time Course Activity 50 sec: fluorescence at 50 sec; for TRPM8 Time Course Activity 50 sec % of WS5: vs 30 uM WS-5.

Regarding `CC(C)[C@@H]1CC[C@@H](C)C[C@H]1C(=O)NCC(NC(=O)[C@@H](C)N)c1ccccc1` (single isomer, unassigned) [Compound 28 fraction 1], the “TRPM8 Time Course Activity 50 sec” value is 884.0 (dose 6.1 nM); 3018.0 (dose 12.2 nM); 1936.0 (dose 24.4 nM); 2916.0 (dose 48.8 nM); 3963.0 (dose 97.6 nM); 5418.0 (dose 195 nM). The “TRPM8 Time Course Activity 50 sec” value by setting is: (dose 390 nM) 7592.0; (dose 781 nM) 9786.0; (dose 1.563 uM) 11114.0; (dose 3.125 uM) 11637.0; (dose 6.25 uM) 12229.0; (dose 12.5 uM) 12430.0. Also, the “TRPM8 Time Course Activity 50 sec” value reads like this: (dose 25 uM) 13046.0; (dose 50 uM) 12419.0; (dose 100 uM) 12646.0. Further, the “TRPM8 Time Course Activity 50 sec % of WS5” value is, setting by setting: (dose 390 nM) 75.5%; (dose 781 nM) 97.3%; (dose 1.563 uM) 110.5%; (dose 3.125 uM) 115.7%; (dose 6.25 uM) 121.6%; (dose 12.5 uM) 123.6%. Also, the “TRPM8 Time Course Activity 50 sec % of WS5” value reads like this: (dose 25 uM) 129.7%; (dose 50 uM) 123.5%; (dose 100 uM) 125.7%.

Values taken from patent publication US9974761B2, “Medications for deposition on biological surfaces” (The Procter & Gamble Company, priority 2014, dated 2018).
